Molecular target: cGMP PDE5 (UniProt O76074)
Assay: Phosphodiesterase (PDE) inhibitory activity: in vitro inhibition of cGMP PDE5 (batch method or scintillation proximity assay)
Details: in vitro activity as inhibitors of cGMP PDE5
Protocol: Phosphodiesterases 7-11 were generated from full length human recombinant clones transfected into SF9 cells.
In summary, the effect of PDE inhibitors was investigated by assaying a fixed amount of enzyme in the presence of varying inhibitor concentrations and low substrate, (cGMP or cAMP in a 3:1 ratio unlabelled to [^3H]-labeled at a conc ˜1/3 Km) such that IC50≅Ki. The final assay volume was made up to 100 μl with assay buffer [20 mM Tris-HCl pH 7.4, 5 mM MgCl2, 1 mg/ml bovine serum albumin].

| Compound | IC50 [nM] |
| --- | --- |
| CCCCOc1ncc(C(=O)N(C)OC)cc1-c1nc2c(CC)n(CCOC)nc2c(=O)[nH]1 [Example 5, 6-Butoxy-5-[3-ethyl-2-(2-methoxyethyl)-7-oxo-6,7-dihydro-2H-pyrazolo[4,3-d]pyrimidin-5-yl]-N-methoxy-N-methylnicotinamide] | 8.5 |
| CCCCOc1ncc(C(C)=O)cc1-c1nc2c(CC)n(CCOC)nc2c(=O)[nH]1 [Example 16, 5-(5-Acetyl-2-butoxy-3-pyridinyl)-3-ethyl-2-(2-methoxyethyl)-2,6-dihydro-7H-pyrazolo[4,3-d]pyrimidin-7-one] | 6.55 |
| CCCCOc1ncc(C(=O)CN2CCOCC2)cc1-c1nc2c(CC)n(CCOC)nc2c(=O)[nH]1 [Example 34, 5-[2-Butoxy-5-(4-morpholinylacetyl)-3-pyridinyl]-3-ethyl-2-(2-methoxyethyl)-2,6-dihydro-7H-pyrazolo[4,3-d]pyrimidin-7-one] | 30.7 |
| CCCCOc1ncc(C(C)=O)cc1-c1nc2c(CC)n(CCN3CCOCC3)nc2c(=O)[nH]1 [Example 48] | 2.45 |
| CCCCOc1ncc(C(C)=O)cc1-c1nc2c(CC)n(C3CCNCC3)nc2c(=O)[nH]1 [Example 49, 5-(5-Acetyl-2-butoxy-3-pyridinyl)-3-ethyl-2-(4-piperidinyl)-2,6-dihydro-7H-pyrazolo[4,3-d]pyrimidin-7-one] | 18 |
| CCOc1ncc(C(C)=O)cc1-c1nc2c(-c3ccc(N(C)C)nc3)n(C)nc2c(=O)[nH]1 [Example 59, 5-(5-Acetyl-2-ethoxy-3-pyridinyl)-3-[6-(dimethylamino)-3-pyridinyl]-2-methyl-2,6-dihydro-7H-pyrazolo[4,3-d]pyrimidin-7-one] | 1.41 |

Tested on: not given
Assay: not given
Details: not given

| Compound | melting point [°C] |
| --- | --- |
| CCCOc1ncc(C#C[Si](C)(C)C)cc1-c1nc2c(CC)nn(CCN3CCOCC3)c2c(=O)[nH]1 | 132 to 134 |
| CCCCOc1ncc(-c2ccco2)cc1-c1nc2c(CC)n(CCOC)nc2c(=O)[nH]1 [Example 12, 5-[2-Butoxy-5-(2-furyl)-3-pyridinyl]-3-ethyl-2-(2-methoxyethyl)-2,6-dihydro-7H-pyrazolo[4,3-d]pyrimidin-7-one] | 154 to 155 |
| CCCOc1ncc(C#N)cc1-c1nc2c(CCC)nn(C)c2c(=O)[nH]1 [Example 70, 5-(1-Methyl-7-oxo-3-propyl-6,7-dihydro-1-pyrazolo[4,3-d]pyrimidin-5-yl)-6-propoxynicotinonitrile] | 174 to 176 |
| CCCc1nn(C)c2c(=O)[nH]c(-c3cc([N+](=O)[O-])cnc3OC3CCC3)nc12 [Example 88, 5-[2-(Cyclobutyloxy)-5-nitro-3-pyridinyl]-1-methyl-3-propyl-1,6-dihydro-7H-pyrazolo[4,3-d]pyrimidin-7-one] | 212 to 214 |
| CCCc1nn(C)c2c(=O)[nH]c(-c3cc(NC(C)=O)cnc3OC3CCC3)nc12 [Example 89, N-[6-(Cyclobutyloxy)-5-(1-methyl-7-oxo-3-propyl-6,7-dihydro-1H-pyrazolo[4,3-d]pyrimidin-5-yl)-3-pyridinyl]acetamide] | 279 to 281 |
| CCCc1nn(C)c2c(=O)[nH]c(-c3cc(N)cnc3OC3CCC3)nc12 [Example 90, 5-[5-Amino-2-(cyclobutyloxy)-3-pyridinyl]-1-methyl-3-propyl-1,6-dihydro-7H-pyrazolo[4,3-d]pyrimidin-7-one] | 185 to 185.5 |
| CCCOc1ncc(NC(=O)N(C)C)cc1-c1nc2c(CCC)nn(C)c2c(=O)[nH]1 [Example 91, N′-[6-(Propoxy)-5-(1-methyl-7-oxo-3-propyl-6,7-dihydro-1H-pyrazolo[4,3-d]pyrimidin-5-yl)-3-pyridinyl]-N,N-dimethylurea] | 219 to 220 |
| CCCOc1ncc(NC(C)=O)cc1-c1nc2c(CCC)nn(C)c2c(=O)[nH]1 [Example 92, N-[6-(Propoxy)-5-(1-methyl-7-oxo-3-propyl-6,7-dihydro-1H-pyrazolo[4,3-d]pyrimidin-5-yl)-3-pyridinyl]acetamide] | 252 to 253 |
| CCCOc1ncc(N(C)C)cc1-c1nc2c(CCC)nn(C)c2c(=O)[nH]1 [Example 93, 5-[5-(Dimethylamino)-2-propoxy-3-pyridinyl]-1-methyl-3-propyl-1,6-dihydro-7H-pyrazolo[4,3-d]pyrimidin-7-one] | 162 to 162.5 |
| CCCOC(=O)Nc1cnc(OCCC)c(-c2nc3c(CCC)nn(C)c3c(=O)[nH]2)c1 [Example 94, Propyl 5-(1-Methyl-7-oxo-3-propyl-6,7-dihydro-1H-pyrazolo[4,3-d]pyrimidin-5-yl)-6-propoxy-3-pyridinylcarbamate] | 210 to 211 |
| CCCOc1ncc(I)cc1-c1nc2c(CC)nn(CCN3CCOCC3)c2c(=O)[nH]1 [Example 95, 3-Ethyl-5-(5-iodo-2-propoxy-3-pyridinyl)-1-[2-(4-morpholinyl)ethyl]-1,6-dihydro-7H-pyrazolo[4,3-d]pyrimidin-7-one] | 175 to 177 |
| CCCOc1ncc(I)cc1-c1nc2c(CC)n(Cc3ccccn3)nc2c(=O)[nH]1 [Example 98, 5-(2-Propoxy-5-iodo-3-pyridinyl)-3-ethyl-2-(2-pyridinylmethyl)-2,6-dihydro-7H-pyrazolo[4,3-d]pyrimidin-7-one] | 228.9 to 233.8 |
| C#Cc1cnc(OCCC)c(-c2nc3c(CC)nn(CCN4CCOCC4)c3c(=O)[nH]2)c1 [Example 107, 3-Ethyl-5-(5-ethynyl-2-propoxy-3-pyridinyl)-1-[2-(4-morpholinyl)ethyl]-1,6-dihydro-7H-pyrazolo[4,3-d]pyrimidin-7-one] | 137 to 139 |
| C#Cc1cnc(OCCC)c(-c2nc3c(CC)n(C4CCN(C(=O)OC(C)(C)C)CC4)nc3c(=O)[nH]2)c1 [Example 112, tert-Butyl 4-[3-Ethyl-5-(5-ethynyl-2-propoxy-3-pyridinyl)-7-oxo-6,7-dihydro-2H-pyrazolo[4,3-d]pyrimidin-2-yl]-1-piperidinecarboxylate] | 221 |
| CCCOc1ncc(C(C)=O)cc1-c1nc2c(CC)nn(CCN3CCOCC3)c2c(=O)[nH]1 [Example 113, 5-(5-Acetyl-2-propoxy-3-pyridinyl)-3-ethyl-1-[2-(4-morpholinyl)ethyl]-1,6-dihydro-7H-pyrazolo[4,3-d]pyrimidin-7-one] | 140 to 143 |
| CCCOc1ncc(C(C)=O)cc1-c1nc2c(CC)n(C3CNC3)nc2c(=O)[nH]1 [Example 117, 5-(5-Acetyl-2-propoxy-3-pyridinyl)-2-(3-azetidinyl)-3-ethyl-2,6-dihydro-7H-pyrazolo[4,3-d]pyrimidin-7-one] | 128.5 to 130 |
| CCCOc1ncc(C(C)=O)cc1-c1nc2c(CC)n(C3CN(C)C3)nc2c(=O)[nH]1 [Example 120, 5-(5-Acetyl-2-propoxy-3-pyridinyl)-3-ethyl-2-(1-methyl-3-azetidinyl)-2,6-dihydro-7H-pyrazolo[4,3-d]pyrimidin-7-one] | 175.9 to 177 |
| CCCOc1ncc(C(C)=O)cc1-c1nc2c(CC)n(C3CN(C(C)=O)C3)nc2c(=O)[nH]1 [Example 121, 2-(1-Acetyl-3-azetidinyl)-5-(5-acetyl-2-propoxy-3-pyridinyl)-3-ethyl-2,6-dihydro-7H-pyrazolo[4,3-d]pyrimidin-7-one] | 229.3 to 230.1 |
| CCCOc1ncc(C(C)=O)cc1-c1nc2c(CC)n(C3CCN(C(C)=O)CC3)nc2c(=O)[nH]1 [Example 122, 2-(1-acetyl-4-piperidinyl)-5-(5-acetyl-2-propoxy-3-pyridinyl)-3-ethyl-2,6-dihydro-7H-pyrazolo[4,3-d]pyrimidin-7-one] | 213 to 214 |
| CCCOc1ncc(C(C)=O)cc1-c1nc2c(CC)n(C3CN(C(C)CC)C3)nc2c(=O)[nH]1 (stereo not shown) [Example 123, 5-(5-Acetyl-2-propoxy-3-pyridinyl)-2-(1-sec-butyl-3-azetidinyl)-3-ethyl-2,6-dihydro-7H-pyrazolo[4,3-d]pyrimidin-7-one] | 176.5 to 177.7 |
| CCCOc1ncc(C(C)=O)cc1-c1nc2c(CC)n(C3CN(C(C)C)C3)nc2c(=O)[nH]1 [Example 124, 5-(5-Acetyl-2-propoxy-3-pyridinyl)-3-ethyl-2-(1-isopropyl-3-azetidinyl)-2,6-dihydro-7H-pyrazolo[4,3-d]pyrimidin-7-one] | 162.8 to 163.6 |
| CCCOc1ncc(C(C)=O)cc1-c1nc2c(CC)n(C3CCN(C)CC3)nc2c(=O)[nH]1 [Example 125, 5-(5-Acetyl-2-propoxy-3-pyridinyl)-3-ethyl-2-(1-methyl-4-piperidinyl)-2,6-dihydro-7H-pyrazolo[4,3-d]pyrimidin-7-one] | 219 to 220 |
| CCCCOc1ncc(C(C)=O)cc1-c1nc2c(CC)n(CC3CC3)nc2c(=O)[nH]1 [Example 127] | 184 to 185 |
| CCOc1ncc(C(C)=O)cc1-c1nc2c(CC)n(CC3CC3)nc2c(=O)[nH]1 [Example 128] | 200 to 201 |
| CCCCOc1ncc(C(C)=O)cc1-c1nc2c(CC)n(C3CCN(C(=O)OC(C)(C)C)CC3)nc2c(=O)[nH]1 [Example 129, tert-Butyl 4-[5-(5-Acetyl-2-butoxy-3-pyridinyl)-3-ethyl-7-oxo-6,7-dihydro-2H-pyrazolo[4,3-d]pyrimidin-2-yl]-1-piperidinecarboxylate] | 194 to 195 |
| CCCCOc1ncc(C(C)=O)cc1-c1nc2c(CC)n(C3CCN(C(C)=O)CC3)nc2c(=O)[nH]1 [Example 131, 5-(5-Acetyl-2-butoxy-3-pyridinyl)-2-(1-acetyl-4-piperidinyl)-3-ethyl-2,6-dihydro-7H-pyrazolo[4,3-d]pyrimidin-7-one] | 156 to 157 |
| CCc1c2nc(-c3cc(C(C)=O)cnc3OCC(C)C)[nH]c(=O)c2nn1C1CCN(C)CC1 [Example 135, 5-(5-Acetyl-2-isobutoxy-3-pyridinyl)-3-ethyl-2-(1-methyl-4-piperidinyl)-2,6-dihydro-7H-pyrazolo[4,3-d]pyrimidin-7-one] | 195 to 196 |
| CCOc1ncc(C(C)=O)cc1-c1nc2c(CC)nn(Cc3nccn3C)c2c(=O)[nH]1 [Example 138, 5-(5-Acetyl-2-ethoxy-3-pyridinyl)-3-ethyl-1-[(1-methyl-1H-imidazol-2-yl)methyl]-1,6-dihydro-7H -pyrazolo[4,3-d]pyrimidin-7-one] | 217.9 to 218.7 |

From patent US6756373B1, “Pharmaceutically active compounds” (Pfizer Inc., priority 1999, dated 2004)
